The values below come from patent publication US9434822B2, “Block copolymer, micelle preparation, and anticancer agent containing the same as active ingredient” (Nippon Kayaku Kabushiki Kaisha, priority 2004, dated 2016).

The structures appear in SMILES notation.

Data set [1] is described as follows: Paclitaxel levels in mouse tumor. Format: in vivo. The settings on record: female, CDF1, mouse, tumor (Colon 26), intravenous, 50 mg/kg i.v., Colon 26 tumor. As to the method: (§1) Each drug was prepared according to the same method as in Test Example 2 (in vivo antitumor effect on Colon 26). A micelle preparation containing paclitaxel, or paclitaxel alone, each at a dose level of 50 mg/kg, was administered via a mouse caudal vein into female CDF1 mouse transplanted with mouse colon cancer Colon 26 in the back, and after a predetermined time, whole blood was collected through an armpit artery. 0.01 mL of plasma obtained by centrifugation was deproteinized (3 times) with 0.2 mL of water and 1 mL of acetonitrile and then subjected to liquid/liquid extraction by adding 2 mL of t-butyl methyl ether. The organic layer was recovered, evaporated into dryness, dissolved in 0.4 mL of dissolving liquid for HPLC, and measured for its paclitaxel concentration by HPLC. Separately, the tumor was homogenized with 0.5% acetic acid to prepare 1% tumor homogenate, and 0.1 mL of 1% tumor homogenate was deproteinized (3 times) with 0.1 mL of water and 1 mL of acetonitrile and subjected to liquid/liquid extraction by adding 2 mL of t-butyl methyl ether. The organic layer was concentrated and dissolved in 0.4 mL of dissolving liquid for HPLC and measured for its paclitaxel concentration by HPLC.

The subject of a further data set is female CDF1 mice. Kind of data set: Observation of peripheral nerve damage to mice (stretch reflex). Format: in vivo, mouse. Particulars: 30 mg/kg in terms of paclitaxel, i.v. for 5 consecutive days, hind limb. As to the method: The micelle preparation of the present invention, or paclitaxel alone, was administered via a mouse caudal vein to female CDF1 mice for 5 consecutive days, and the stretch reflex of the mouse hind limb was observed as an indicator of the peripheral nerve damage caused by paclitaxel. Each drug was prepared in the same manner as in Test Example 2 (in vivo antitumor effect on Colon 26). The dose was 30 mg/kg in terms of paclitaxel.

Data set [2] relates to Mouse colon cancer Colon 26 cells. Kind of data set: In vivo antitumor effect on Colon 26. Particulars: i.v. 3 times at 4-day intervals, Day 11 after administration. The procedure: Mouse colon cancer Colon 26 cells were transplanted subcutaneously in the back of female CDF1 mouse, and after the volume of the tumor reached about 100 mm^3, the micelle preparation of Example 4, or paclitaxel alone as the control drug, was administered via a mouse caudal vein into the mouse 3 times at 4-day intervals, to examine the effect thereof on advanced cancer. The micelle preparation had been diluted with 5% glucose solution to form a solution containing paclitaxel at a concentration of 3 mg/mL. Paclitaxel for use as the sole regimen was dissolved in ethanol and mixed with an equal volume of Cremophor (manufactured by Sigma) to prepare a solution containing paclitaxel at a concentration of 30 mg/mL, and the resulting preparation was diluted with physiological saline to 3 mg/mL just before administration. The antitumor effect of each drug was judged in percentage (T/C %) of the average tumor volume of the group which was given the drug on Day 11 after administration, relative to the average tumor volume of the group which was not given the drug. A lower numerical value is indicative of higher effect.

Data set [3] in a line: Paclitaxel levels in mouse plasma. Format: in vivo. The settings on record: female, intravenous, 50 mg/kg i.v., Colon 26-bearing CDF1 mice. As to the method:
as §1

For the compound `CC(=O)O[C@H]1C(=O)[C@@]2(C)[C@H]([C@H](OC(=O)c3ccccc3)[C@]3(O)C[C@H](OC(=O)[C@H](O)[C@@H](NC(=O)c4ccccc4)c4ccccc4)C(C)=C1C3(C)C)[C@]1(OC(C)=O)CO[C@@H]1C[C@@H]2O` [Paclitaxel alone, paclitaxel], the figures for the concentration at 0.083 h in data set [1] (0.083 hours) and in data set [3] (0.083 hours) were 7370 ng/mL and 59300 ng/mL, respectively. Also, the results for the concentration at 0.5 h in data set [1] (0.5 hours) and in data set [3] (0.5 hours) were 10000 ng/mL and 31900 ng/mL, respectively. For the same compound, the concentration at 2 h was 12500 ng/mL in data set [1] (2 hours) and 14800 ng/mL in data set [3] (2 hours). In addition, the values for the concentration at 6 h in data set [1] (6 hours) and in data set [3] (6 hours) were 5790 ng/mL and 710 ng/mL, respectively. Besides, the concentration at 24 h in data set [1] (24 hours) came to 1250 ng/mL. Moreover, the “Mice with loss of stretch reflex” value is reported as 3/3 in the data set with female CDF1 mice and “recognized to lose stretch reflex in every mouse” with female CDF1 mice (listed as paclitaxel alone). Also, the “T/C % (average tumor volume relative to group not given the drug)” value amounted to 81.6% in data set [2] (dose 50 mg/kg) and 52.6% in data set [2] (dose 100 mg/kg).
